Laboratory results published in article PMC11589570, “Critical assessment of LC3/GABARAP ligands used for degrader development and ligandability of LC3/GABARAP binding pockets” (Nature Communications, 2024).
“And” between values parts separate entries of the source, which are not always exact repeats. Identical values can stand only once.

Columns and labels:
LC3A [1] = target: T1, LC3A (Homo sapiens, UniProt Q9H492); experiment: FP assay with Cy5-labelled p62 LIR tracer (protein titration and tracer displacement); format: binding; settings: two replicate columns per compound
LC3A [2] = target: T1, LC3A; experiment: Isothermal titration calorimetry (ITC); format: binding; settings: LC3A
Description: To minimize nonspecific dilution heat effects, DMSO concentrations in the protein and compound samples were matched. […] For this protocol, the chamber was pre-equilibrated with the protein, and the test compounds were titrated while continuously measuring the rate of exothermic heat evolution. The heat of binding was integrated, corrected, and fitted to an independent single-binding site model based on the manufacturer’s instructions, from which thermodynamic parameters (ΔH and TΔS), equilibrium association and dissociation constants (KA and KD, respectively), and stoichiometry (n) were calculated using TA Instruments NanoAnalyze software.

RPE1 cells = experiment: Cell growth assay (IncuCyte confluence over 72 h); format: cell-based; settings: listed as KT1
Protocol: Cell growth assay: Cell confluence (phase) from RPE1 (hTERT RPE-1, ATCC CLR_4000) or U2OS (ATCC, HTB-96) cell lines were monitored over time with the IncuCyte S3 (Sartiorius, Germany) in 384-well plates in 50 ul DMEM media, supplemented with 10% Fetal Bovine Serum (FBS) 1% penicillin/Streptomycin and incubated 24 h before treatment. Experiment was performed as described in Cano-Franco et al.. 50 μl of media containing either 2× final concentration of indicated compounds in or control compounds (final conc.: 0.1% DMSO, 250 nM Torin1, 200 ng/mL Bafilomycin) were added and images were taken every two hours over 72 h. Cell confluence is represented as % of area covered by cells. Each data point represents the average ratio or confluence obtained from three individual wells of the plate.

LC3B = LC3B (Homo sapiens, UniProt Q9GZQ8); experiment: FP assay with Cy5-labelled p62 LIR tracer (protein titration and tracer displacement); format: binding; settings: for normalized FP signal, p62 LIR tracer displacement: LC3B; for compound titration LC3B (displacement curve, FP signal): two replicate columns per compound
[3] = log10 concentration [M] -3.82391
[4] = log10 concentration [M] -4.1549
[5] = log10 concentration [M] -4.60206
[6] = log10 concentration [M] -5.30103
[7] = log10 concentration [M] -5.69897
[8] = log10 concentration [M] -6.22185
[9] = log10 concentration [M] -6.69897
[10] = log10 concentration [M] -7.30103
[11] = log10 concentration [M] -7.79588
[12] = log10 concentration [M] -8.08092

compound titration LC3A (displacement curve, FP signal) (LC3A [1]; [3]): 97.6316 and 96.3158
compound titration LC3A (displacement curve, FP signal) (LC3A [1]; [4]): 102.368 and 100.263
compound titration LC3A (displacement curve, FP signal) (LC3A [1]; [5]): 93.6842 and 106.579
compound titration LC3A (displacement curve, FP signal) (LC3A [1]; log10 concentration [M] -5): 101.842 and 99.2105
compound titration LC3A (displacement curve, FP signal) (LC3A [1]; [6]): 105 and 102.368
compound titration LC3A (displacement curve, FP signal) (LC3A [1]; [7]): 101.842 and 94.2105
compound titration LC3A (displacement curve, FP signal) (LC3A [1]; [8]): 98.9474 and 95.2632
compound titration LC3A (displacement curve, FP signal) (LC3A [1]; [9]): 98.4211
compound titration LC3A (displacement curve, FP signal) (LC3A [1]; [10]): 101.842 and 96.5789
compound titration LC3A (displacement curve, FP signal) (LC3A [1]; [11]): 97.8947 and 91.3158
compound titration LC3A (displacement curve, FP signal) (LC3A [1]; [12]): 102.105 and 89.4737
outcome of ITC titration (LC3A [2]): induced protein precipitation
normalized FP signal, p62 LIR tracer displacement (LC3B; [3]): 74.4737 and 78.6842
normalized FP signal, p62 LIR tracer displacement (LC3B; [4]): 94.4737 and 95.2632
normalized FP signal, p62 LIR tracer displacement (LC3B; [5]): 95 and 102.105
normalized FP signal, p62 LIR tracer displacement (LC3B; log10 concentration [M] -5): 92.8947 and 101.053
normalized FP signal, p62 LIR tracer displacement (LC3B; [6]): 97.1053 and 100
normalized FP signal, p62 LIR tracer displacement (LC3B; [7]): 93.6842 and 95.5263
normalized FP signal, p62 LIR tracer displacement (LC3B; [8]): 100 and 92.1053
normalized FP signal, p62 LIR tracer displacement (LC3B; [9]): 96.8421 and 99.4737
normalized FP signal, p62 LIR tracer displacement (LC3B; [10]): 97.8947 and 102.368
normalized FP signal, p62 LIR tracer displacement (LC3B; [11]): 96.5789 and 100
normalized FP signal, p62 LIR tracer displacement (LC3B; [12]): 100.789 and 96.5789
compound titration LC3B (displacement curve, FP signal) (LC3B; [3]): 74.4737 and 78.6842
compound titration LC3B (displacement curve, FP signal) (LC3B; [4]): 94.4737 and 95.2632
compound titration LC3B (displacement curve, FP signal) (LC3B; [5]): 95 and 102.105
compound titration LC3B (displacement curve, FP signal) (LC3B; log10 concentration [M] -5): 92.8947 and 101.053
compound titration LC3B (displacement curve, FP signal) (LC3B; [6]): 97.1053 and 100
compound titration LC3B (displacement curve, FP signal) (LC3B; [7]): 93.6842 and 95.5263
compound titration LC3B (displacement curve, FP signal) (LC3B; [8]): 100 and 92.1053
compound titration LC3B (displacement curve, FP signal) (LC3B; [9]): 96.8421 and 99.4737
compound titration LC3B (displacement curve, FP signal) (LC3B; [10]): 97.8947 and 102.368
compound titration LC3B (displacement curve, FP signal) (LC3B; [11]): 96.5789 and 100
compound titration LC3B (displacement curve, FP signal) (LC3B; [12]): 100.789 and 96.5789
Structure (SMILES): Cc1ccc(C)c(S(=O)(=O)Nc2cc(SCC(=O)O)c(O)c3ccccc23)c1 [compound 8]
RPE1 cell growth (RPE1 cells; 100 nM, 0 h): 18 and 24 and 13
RPE1 cell growth (RPE1 cells; 100 nM, 6 h): 23 and 30 and 15
RPE1 cell growth (RPE1 cells; 100 nM, 8 h): 25 and 30 and 16
RPE1 cell growth (RPE1 cells; 100 nM, 10 h): 25 and 32 and 17
RPE1 cell growth (RPE1 cells; 100 nM, 12 h): 24 and 34 and 18
RPE1 cell growth (RPE1 cells; 1 uM, 0 h): 19 and 20 and 26
RPE1 cell growth (RPE1 cells; 1 uM, 2 h): 20 and 28
RPE1 cell growth (RPE1 cells; 1 uM, 4 h): 20 and 25 and 32
RPE1 cell growth (RPE1 cells; 1 uM, 6 h): 21 and 26 and 32
RPE1 cell growth (RPE1 cells; 1 uM, 8 h): 22 and 29 and 35
RPE1 cell growth (RPE1 cells; 1 uM, 10 h): 25 and 29 and 37
RPE1 cell growth (RPE1 cells; 1 uM, 12 h): 27 and 32 and 38
RPE1 cell growth (RPE1 cells; 1 uM, 14 h): 29
RPE1 cell growth (RPE1 cells; 3 uM, 0 h): 20 and 28 and 21
RPE1 cell growth (RPE1 cells; 3 uM, 2 h): 23 and 30 and 21
RPE1 cell growth (RPE1 cells; 3 uM, 4 h): 25 and 34 and 21
RPE1 cell growth (RPE1 cells; 3 uM, 6 h): 25 and 34 and 23
RPE1 cell growth (RPE1 cells; 3 uM, 8 h): 29 and 35 and 24
RPE1 cell growth (RPE1 cells; 3 uM, 10 h): 29 and 37 and 26
RPE1 cell growth (RPE1 cells; 3 uM, 12 h): 30 and 38 and 28
RPE1 cell growth (RPE1 cells; 3 uM, 14 h): 32 and 42 and 30
RPE1 cell growth (RPE1 cells; 5 uM, 0 h): 17 and 27 and 20
RPE1 cell growth (RPE1 cells; 5 uM, 2 h): 20 and 30
RPE1 cell growth (RPE1 cells; 5 uM, 4 h): 22 and 33 and 21
RPE1 cell growth (RPE1 cells; 5 uM, 6 h): 22 and 36
RPE1 cell growth (RPE1 cells; 5 uM, 8 h): 26 and 37 and 23
RPE1 cell growth (RPE1 cells; 5 uM, 10 h): 25 and 39
RPE1 cell growth (RPE1 cells; 5 uM, 12 h): 28 and 40 and 27
RPE1 cell growth (RPE1 cells; 5 uM, 14 h): 29 and 45
RPE1 cell growth (RPE1 cells; 10 uM, 0 h): 17 and 22 and 19
RPE1 cell growth (RPE1 cells; 10 uM, 2 h): 20 and 23
RPE1 cell growth (RPE1 cells; 10 uM, 4 h): 23 and 26 and 20
RPE1 cell growth (RPE1 cells; 10 uM, 6 h): 24 and 31 and 22
RPE1 cell growth (RPE1 cells; 10 uM, 8 h): 25 and 29 and 23
RPE1 cell growth (RPE1 cells; 10 uM, 10 h): 26 and 28 and 25
RPE1 cell growth (RPE1 cells; 10 uM, 12 h): 28 and 32 and 27
